From patent US20250332162A1 (priority 2022, published 2025)
Where two headings read alike, the source gives them in different places.

How the values were obtained:
[1] = Solubility on dilution of 10 mM DMSO stocks; format: physicochemical; conditions: 10 mM stocks in DMSO
Method: Antiviral compounds: Favipiravir, Mycophenolate, and Viramidine were prepared as 10 mM stocks in dimethyl sulfoxide (DMSO) and were soluble when diluted in various reaction mixtures and cell culture media. […] Also, combination of Favipiravir with each of the other drugs were tested.

[2] = tested on: Flu virus strain A/Puerto Rico/8/1934 (PR8); experiment: microbe, parasite or virus in culture; format: cell-based; conditions: unidentified influenza virus, PR8, MDCK, MDCK cells
[3] = 48 h, read-out: estimated IC50 when used alone, Example A, PR8 Flu virus 0.01 MOI, 48 hours
[4] = read-out: IC50, inhibition of influenza virus cytopathic activity, drug alone, FIG. 1 experiment, influenza A/PR8 m.o.i. 0.01, pre-treated 1 h, two days
[5] = read-out: IC50, inhibition of influenza virus cytopathic activity, drug alone, FIG. 7 experiment, influenza m.o.i. 0.01, pre-treated 1 h, two days

Compound	solubility when diluted in reaction mixtures and cell culture media [1]	IC50 [2, 3] [µM]	IC50 [2, 4] [µM]	IC50 [2, 5] [µM]
NC(=O)c1nc(F)c[nH]c1=O [Favipiravir, favipiravir]	soluble	25	26.5	25.1
COc1c(C)c2c(c(O)c1C/C=C(\C)CCC(=O)O)C(=O)OC2 [Mycophenolate]	soluble	1.42	1.4	–
N=C(N)c1ncn([C@@H]2O[C@H](CO)[C@@H](O)[C@H]2O)n1 [Viramidine, viramidine]	soluble	94.7	–	94.7
